Laboratory results from US20040157845A1, “Vanilloid receptor ligands and their use in treatments” (Amgen Inc., priority 2003, published 2004).

| melting point | Structure (SMILES) |
| --- | --- |
| 95 to 96.4 °C | O=C(Nc1ccc(C(F)(F)C(F)(F)F)cc1)c1csc(Cc2c(Cl)cccc2Cl)n1 [Example 47] |
| 216 to 218 °C | CC(C)c1ccc(NC(=O)c2csc(Nc3c(Cl)cccc3C(F)(F)F)n2)cc1 [Example 70] |
| 262 to 264 °C | O=C(Nc1ccc(Br)cc1)c1csc(Nc2c(Cl)cccc2C(F)(F)F)n1 [Example 69] |
